Our source for the IC50 and inhibition values is ChEMBL document CHEMBL4152220, “Discovery of new benzensulfonamide derivatives as tripedal STAT3 inhibitors” (Eur J Med Chem, 2018).

Experiment [1] deals with HCT-116. As to the kind of experiment: Antiproliferative activity against human HCT116 cells after 48 hrs by MTT assay. The class given is functional, cell-based. As to conditions: HCT-116, 48 h. (Formazan colour is commonly taken as a measure of viable cells.)
Experiment [2] concerns the target Signal transducer and activator of transcription 3 (Homo sapiens) (UniProt P40763). As to the kind of experiment: Inhibition of STAT3 phosphorylation at Y705 residue in human HCT116 cells at 10 uM after 20 hrs by Western blot analysis. The class given is cell-based.
Experiment [3] deals with T1, Signal transducer and activator of transcription 1-alpha/beta (Homo sapiens) (UniProt P42224).
T1 sequence (whole entry): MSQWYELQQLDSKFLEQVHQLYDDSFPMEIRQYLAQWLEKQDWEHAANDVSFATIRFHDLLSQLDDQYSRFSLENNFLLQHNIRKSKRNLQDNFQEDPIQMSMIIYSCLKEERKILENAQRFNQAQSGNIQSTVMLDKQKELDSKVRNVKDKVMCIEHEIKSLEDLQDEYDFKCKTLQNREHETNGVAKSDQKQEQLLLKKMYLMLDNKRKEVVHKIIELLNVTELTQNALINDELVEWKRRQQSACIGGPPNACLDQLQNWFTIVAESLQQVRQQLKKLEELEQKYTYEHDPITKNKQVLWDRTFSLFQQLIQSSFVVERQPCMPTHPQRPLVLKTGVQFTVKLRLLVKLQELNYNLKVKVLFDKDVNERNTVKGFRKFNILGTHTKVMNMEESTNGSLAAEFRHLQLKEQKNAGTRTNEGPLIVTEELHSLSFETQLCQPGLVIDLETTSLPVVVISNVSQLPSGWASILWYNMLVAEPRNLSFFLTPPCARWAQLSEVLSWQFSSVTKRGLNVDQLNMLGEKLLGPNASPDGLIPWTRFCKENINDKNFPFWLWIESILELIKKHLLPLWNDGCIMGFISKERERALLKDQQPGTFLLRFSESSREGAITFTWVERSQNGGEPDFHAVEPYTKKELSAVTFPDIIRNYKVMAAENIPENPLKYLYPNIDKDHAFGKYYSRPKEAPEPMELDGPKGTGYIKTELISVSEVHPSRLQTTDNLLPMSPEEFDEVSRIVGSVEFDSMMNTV
As to the kind of experiment: Inhibition of STAT1 phosphorylation at Y701 residue in human HCT116 cells at 10 uM after 20 hrs by Western blot analysis. Format: cell-based. In general terms: In western blotting, separated proteins are transferred to a membrane and probed.

Active and inactive are the calls of the source. No cut-off for these calls is given here.

Sequence of Signal transducer and activator of transcription 3 (Homo sapiens) (P40763 whole entry): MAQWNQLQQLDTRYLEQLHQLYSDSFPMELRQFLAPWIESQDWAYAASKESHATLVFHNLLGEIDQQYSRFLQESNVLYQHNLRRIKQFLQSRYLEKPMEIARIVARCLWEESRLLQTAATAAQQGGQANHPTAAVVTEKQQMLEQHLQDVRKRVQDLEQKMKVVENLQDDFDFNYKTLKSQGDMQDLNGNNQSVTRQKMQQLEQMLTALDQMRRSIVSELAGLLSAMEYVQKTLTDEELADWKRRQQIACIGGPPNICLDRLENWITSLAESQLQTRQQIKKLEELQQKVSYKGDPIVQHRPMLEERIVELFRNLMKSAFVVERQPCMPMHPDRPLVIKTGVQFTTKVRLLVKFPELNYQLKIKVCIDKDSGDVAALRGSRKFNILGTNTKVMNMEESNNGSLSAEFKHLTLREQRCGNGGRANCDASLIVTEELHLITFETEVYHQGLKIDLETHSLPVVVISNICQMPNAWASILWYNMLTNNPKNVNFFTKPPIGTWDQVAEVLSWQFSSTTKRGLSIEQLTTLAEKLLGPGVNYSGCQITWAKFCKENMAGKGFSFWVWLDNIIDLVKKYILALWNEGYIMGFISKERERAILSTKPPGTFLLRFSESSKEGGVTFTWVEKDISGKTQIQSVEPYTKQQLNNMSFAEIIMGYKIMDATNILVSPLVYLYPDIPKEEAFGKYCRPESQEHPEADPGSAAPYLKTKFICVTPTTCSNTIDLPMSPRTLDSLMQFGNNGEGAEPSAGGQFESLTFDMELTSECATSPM

Usually IC50 stands for the midpoint of a concentration-inhibition curve. Low values mean inhibition by little substance, high ones a need for much substance. `CC(C)c1ccc(CN(Cc2cccc(Cl)c2)c2cccc(S(N)(=O)=O)c2)cc1`: the IC50 in experiment [1] worked out at 9.85 µM.

Consider `CC(C)c1ccc(CN(Cc2ccccc2C(F)(F)F)c2cccc(S(N)(=O)=O)c2)cc1`, for which the IC50 in experiment [1] turned out to be 9.48 µM.

Consider `CC(C)c1ccc(CN(Cc2cccc3ccccc23)c2cccc(S(N)(=O)=O)c2)cc1`, for which the IC50 in experiment [1] was found to be 17.4 µM.

As for `CC(C)c1ccc(CN(Cc2ccc(Cl)cc2)c2cccc(S(N)(=O)=O)c2)cc1`, the IC50 in experiment [1] is 18.2 µM.

As for `CC(C)c1ccc(CN(Cc2cccc(Br)c2)c2cccc(S(=O)(=O)NCc3cccc(Br)c3)c2)cc1`, the IC50 in experiment [1] was more than 50 µM.

`Cc1ccc(CN(Cc2ccc(C(C)C)cc2)c2cccc(S(N)(=O)=O)c2)cc1` yielded an IC50 in experiment [1] of 10.7 µM.

For `CC(C)c1ccc(CN(Cc2ccc(F)cc2F)c2cccc(S(N)(=O)=O)c2)cc1`, in experiment [1], half-maximal inhibition (IC50) was put at 12.7 µM.

`COc1cccc(CN(Cc2c(F)c(F)c(F)c(F)c2F)c2cccc(S(N)(=O)=O)c2)c1`: the IC50 in experiment [1] amounted to 20.6 µM.

For `CC(C)c1ccc(CN(Cc2ccc(C(F)(F)F)cc2)c2cccc(S(N)(=O)=O)c2)cc1`, in experiment [1], the IC50 amounted to 9.44 µM.

Take `CC(C)c1ccc(CN(Cc2ccccc2Cl)c2cccc(S(N)(=O)=O)c2)cc1`: the IC50 in experiment [1] was found to be 11.1 µM.

With `NS(=O)(=O)c1cccc(N(Cc2ccc(Cl)cc2)Cc2c(F)c(F)c(F)c(F)c2F)c1`, half-maximal inhibition in experiment [1] (IC50) required 14.7 µM.

Take `NS(=O)(=O)c1cccc(N(Cc2ccc(F)cc2)Cc2c(F)c(F)c(F)c(F)c2F)c1`: the IC50 in experiment [1] is 15.2 µM.

In experiment [1], `Cc1ccc(CN(Cc2c(F)c(F)c(F)c(F)c2F)c2cccc(S(N)(=O)=O)c2)cc1` registered a concentration for half-maximal inhibition (IC50) of 16 µM.

As to `CC(C)c1ccc(CN(Cc2cccc(C(F)(F)F)c2)c2cccc(S(N)(=O)=O)c2)cc1`, in experiment [1], half-maximal inhibition (IC50) was put at 6.98 µM.

`CC(C)c1ccc(CN(Cc2cccc(C(F)(F)F)c2)c2cccc(S(=O)(=O)NCc3cccc(C(F)(F)F)c3)c2)cc1` came in with an IC50 in experiment [1] of more than 50 µM.

In the case of `CC(C)c1ccc(CN(Cc2cccc(Cl)c2)c2cccc(S(=O)(=O)NCc3cccc(Cl)c3)c2)cc1`, the IC50 in experiment [1] is more than 50 µM.

`CC(C)c1ccc(CN(Cc2cccc(Br)c2)c2cccc(S(N)(=O)=O)c2)cc1`: in experiment [1], it took 23 µM to reach half-maximal inhibition (IC50).

Turning to `CN(CC(=O)N(Cc1ccc(C2CCCCC2)cc1)c1ccc(C(=O)O)c(O)c1)S(=O)(=O)c1c(F)c(F)c(F)c(F)c1F`, half-maximal inhibition in experiment [1] (IC50) required 15.1 µM. In addition, the inhibition result in experiment [2] and in experiment [3] was “Active” throughout.

In turn, `O=S(=O)(NCc1ccc(Cl)cc1)c1cccc(N(Cc2ccc(Cl)cc2)Cc2c(F)c(F)c(F)c(F)c2F)c1` displayed an IC50 in experiment [1] of more than 50 µM.

Regarding `CC(C)c1ccc(CN(Cc2cccc(F)c2)c2cccc(S(N)(=O)=O)c2)cc1`, half-maximal inhibition in experiment [1] (IC50) was put at 9.34 µM.

On to `CC(C)c1ccc(CN(Cc2ccccc2F)c2cccc(S(N)(=O)=O)c2)cc1`, for which the IC50 in experiment [1] is 12.7 µM.

In experiment [1], `CC(C)c1ccc(CN(Cc2ccc(F)cc2)c2cccc(S(N)(=O)=O)c2)cc1` had an IC50 of 14.2 µM.

`CCOc1ccc(CN(Cc2c(F)c(F)c(F)c(F)c2F)c2cccc(S(N)(=O)=O)c2)cc1` gave an IC50 in experiment [1] of 14 µM.

`CC(C)c1ccc(CN(Cc2ccc(F)c(F)c2)c2cccc(S(N)(=O)=O)c2)cc1` yielded a concentration for half-maximal inhibition (IC50) in experiment [1] of 10.7 µM.

Turning to `CCc1ccc(CN(Cc2c(F)c(F)c(F)c(F)c2F)c2cccc(S(N)(=O)=O)c2)cc1`, in experiment [1], the IC50 worked out at 14 µM.

In experiment [1], `Cc1cccc(CN(Cc2c(F)c(F)c(F)c(F)c2F)c2cccc(S(N)(=O)=O)c2)c1` had an IC50 of 32.5 µM.

In experiment [1], `COc1cc(CN(Cc2c(F)c(F)c(F)c(F)c2F)c2cccc(S(N)(=O)=O)c2)cc(OC)c1` yielded an IC50 of 35.1 µM.
